Measured values: patent US20240252472A1, “COMBINATIONS FOR TREATING CANCER” (Purdue Pharma L.P., priority 2023, published 2024)

Legend:
MOLP-8 cells [1] = experiment: Daratumumab-mediated complement-dependent cytotoxicity (CDC) on pre-treated MM cells; assay type: cell-based; conditions: MOLP-8 pre-treated 2.5 μM 48 hours; daratumumab 0.1 or 1 μg/mL, 10% human serum, 4 hours
Method: (§1) ADCC, CDC and apoptosis via cross-linking To assess the effect of tinostamustine pre-treatment on cytotoxic mechanisms mediated by daratumumab, MM cell lines were first incubated in presence of tinostamustine (2.5 μM) or DMSO for 48 hours. Cells were then washed to remove tinostamustine or DMSO from the culture medium, and the corresponding cytotoxic assay (ADCC, CDC or apoptosis via cross-linking) was performed.
(§2) For the evaluation of ADCC, tinostamustine or DMSO pre-treated cells were cocultured with NK cells obtained from healthy donors in the presence of daratumumab (1 μg/ml) or the corresponding isotype control for 4 hours (ratio 1:1). Briefly, peripheral blood mononuclear cells (PBMCs) were isolated from healthy donor buffy coats by Lymphoprep density gradient centrifugation. […] In all three assays, the cytotoxic effect on MM cells was evaluated by flow cytometry with Annexin V/7AAD staining after treatment with daratumumab. […]
MM cells (MOLP-8 pre-treated with 0 or 2.5 μM EDO-S101 for 48 hours in accordance with the methods outlined above) were incubated with 0.1 μg/mL daratumumab, 1 μg/ml daratumumab, or the corresponding isotype control, for 30 minutes at 37° C. […] The percentage of dead cells was then evaluated by flow cytometry in accordance with the methods outlined above, using AnnexinV/7AAD staining.

MOLP-8 cells [2] = experiment: Daratumumab cross-linking mediated apoptosis after EDO-S101 pre-treatment; assay type: cell-based, human; conditions: MOLP-8 pre-treated with EDO-S101 2.5 μM 48 h, daratumumab 1 μg/mL 24 h + F(ab)2; vs not pre-treated, p=0.0454
Method: as §1
as §2, with “1:1).” for “1:1). Briefly, peripheral blood mononuclear cells (PBMCs) were isolated from healthy donor buffy coats by Lymphoprep density gradient centrifugation.”
MM cells (MOLP-8 cells pre-treated with 0, 0.1, 0.5, 1 or 2.5 μM EDO-S101 for 48 hours in accordance with the methods outlined above) were incubated for 24 hours in the presence of 1 μg/mL daratumumab or the corresponding isotype control, along with 10 μg/mL F(ab)2 fragments for cross-linking. Apoptosis was evaluated by flow cytometry in accordance with the methods outlined above, using AnnexinV/7AAD staining. The effect of EDO-S101 on the crosslinking-mediated apoptosis induced by daratumumab was assessed using the following formula: […]

[3] = system: MM cell lines (MM.1S, RPMI-8226, MOLP-8); experiment: Daratumumab-mediated ADCC on pre-treated MM cells; assay type: cell-based, human; conditions: pre-treatment 2.5 μM 48 hours, NK cells 1:1 + daratumumab 1 μg/mL, 4 hours, vs DMSO-pretreated
Method: as §1, §2
MM cells (MM1.S, RPMI-8226, MOLP-8 cells pre-treated with 0 or 2.5 μM EDO-S101 in accordance with the methods outlined above) were co-cultured with NK-cells (ratio 1:1), in the presence of daratumumab (1 μg/mL) or the corresponding isotype control, for 4 hours at 37° C. […] ADCC was then evaluated using flow cytometry in accordance with the methods outlined above, using the following panel: CD38me-FITC/AnnexinV-PE/7AAD/CD45-APC.

CD38 = CD38 surface expression in MM cell lines by flow cytometry; assay type: cell-based, human
Method: (§3) Cell Treatment with EDO-S101 MM cells (MM1S, JJN3, KMS12-BM, RPMI-8226, U266, MOLP-8) were either treated with a control (0 μM EDO-S101, DMSO vehicle) or treated with EDO-S101 (0.1, 0.5, 1 or 2.5 μM in DMSO) for 48 hours, unless indicated otherwise.
For surface staining, cells were incubated with the appropriate antibodies and 7AAD (Immunostep) for 15 min in the dark. Data were acquired using a FACSCalibur cytometer (BD Biosciences) and analyzed using Infinicyt™ software (Cytognos). Specifically, the expression of CD38 or ligands for NK cell activating receptors (MICA, MICB, ULBP1-3, PVR and CD112) in MM cell lines was determined on the viable cell population (7AAD-). In primary myeloma cells, the expression of CD38 was analyzed over the viable myeloma population using the panel CD138-FITC/CD56-PE/7AAD/CD38-APC, whereas MICA/B-AF488/CD56-PE/7AAD/CD38-APC panel was used to determine MICA/B expression. Normalized median fluorescence intensity (MFI) was calculated by dividing median fluorescence obtained with the specific antibody by median fluorescence of the corresponding isotype control. MFI for each treatment was expressed as a percentage relative to the control (100%, cells cultured in media with DMSO). […]

MOLP-8 = experiment: Percentage of viable MM cells after treatment; assay type: cell-based; conditions: Homo sapiens, MOLP-8, read-out: percentage of viable cells
Method: as §3

JJN3 = experiment: Percentage of viable MM cells after treatment; assay type: cell-based; conditions: Homo sapiens, JJN-3, read-out: percentage of viable cells
Method: as §3

Structure (SMILES): Cn1c(CCCCCCC(=O)NO)nc2cc(N(CCCl)CCCl)ccc21 [EDO-S101, 7-(5-(bis(2-chloroethyl)amino)-1-methyl-1H-benzo[d]imidazol-2-yl)-N-hydroxyheptanamide]
- daratumumab mediated CDC (MOLP-8 cells [1]): enhanced
- daratumumab-mediated apoptosis via cross-linking (MOLP-8 cells [2]): higher
- percentage of dead myeloma cells, daratumumab-mediated ADCC [3]: significantly enhanced
- percentage of dead myeloma cells, daratumumab-mediated ADCC ([3]; listed as tinostamustine): higher
- percentage of CD38+ cell population (CD38; JJN3 cell line, 1 and 2.5 μM): significantly increased
- CD38 surface expression (normalized MFI) (CD38; MM1.S, JJN3, KMS12-BM, RPMI-8226, U226, MOLP-8, 0.1, 0.5, 1 and 2.5 μM, 48 hours, relative to DMSO control, only exception NCI-H929): significantly increased
- viability at 2.5 µM (MOLP-8): 25.6%
- viability at 2.5 µM (JJN3): 55.5%
